From paper PMC7846792, “Perception of a divergent family of phytocytokines by the Arabidopsis receptor kinase MIK2” (Nature Communications, 2021)
No end group written: not given here.

System: A. thaliana seedlings
Assay: Seedling growth inhibition (fresh weight)
Type: in vivo, Arabidopsis thaliana
Settings: mock mean = 1
Protocol: Four-day-old seedlings growing on MS plates were transferred individually into separate wells of transparent 48-well tissue culture plates (Greiner Bio-One) containing 500 μL of liquid MS media with/without elicitor addition. The plates were then transferred back to the growth conditions for an additional 10 days before seedlings were blot-dried and weighed.

Sequence: PVRSSRSPRSPSF [SCOOP2]
- Seedling fresh weight (Fig3C), relative to mock (Col-0, 1 μM, replicate 1): 1.166
- Seedling fresh weight (Fig3C), relative to mock (Col-0, 1 μM, replicate 2): 0.8827
- Seedling fresh weight (Fig3C), relative to mock (Col-0, 1 μM, replicate 3): 1.02
- Seedling fresh weight (Fig3C), relative to mock (Col-0, 1 μM, replicate 4): 1.184
- Seedling fresh weight (Fig3C), relative to mock (Col-0, 1 μM, replicate 5): 0.971
- Seedling fresh weight (Fig3C), relative to mock (Col-0, 1 μM, replicate 6): 0.6909
- Seedling fresh weight (Fig3C), relative to mock (Col-0, 1 μM, replicate 7): 0.9497
- Seedling fresh weight (Fig3C), relative to mock (Col-0, 1 μM, replicate 8): 0.9771
- Seedling fresh weight (Fig3C), relative to mock (Col-0, 1 μM, replicate 9): 0.9071
- Seedling fresh weight (Fig3C), relative to mock (Col-0, 1 μM, replicate 10): 0.9253
- Seedling fresh weight (Fig3C), relative to mock (Col-0, 1 μM, replicate 11): 0.8736
- Seedling fresh weight (Fig3C), relative to mock (Col-0, 1 μM, replicate 12): 0.9892
- Seedling fresh weight (Fig3C), relative to mock (Col-0, 10 μM, replicate 1): 0.6187
- Seedling fresh weight (Fig3C), relative to mock (Col-0, 10 μM, replicate 2): 0.9067
- Seedling fresh weight (Fig3C), relative to mock (Col-0, 10 μM, replicate 3): 0.8218
- Seedling fresh weight (Fig3C), relative to mock (Col-0, 10 μM, replicate 4): 0.6399
- Seedling fresh weight (Fig3C), relative to mock (Col-0, 10 μM, replicate 5): 0.5307
- Seedling fresh weight (Fig3C), relative to mock (Col-0, 10 μM, replicate 6): 0.5914
- Seedling fresh weight (Fig3C), relative to mock (Col-0, 10 μM, replicate 7): 0.649
- Seedling fresh weight (Fig3C), relative to mock (Col-0, 10 μM, replicate 8): 0.6005
- Seedling fresh weight (Fig3C), relative to mock (Col-0, 10 μM, replicate 9): 0.5337
- Seedling fresh weight (Fig3C), relative to mock (Col-0, 10 μM, replicate 10): 0.555
- Seedling fresh weight (Fig3C), relative to mock (Col-0, 10 μM, replicate 11): 0.7005
- Seedling fresh weight (Fig3C), relative to mock (Col-0, 10 μM, replicate 12): 0.6793
- Seedling fresh weight (Fig3C), relative to mock (mik2-1, 1 μM, replicate 1): 0.8038
- Seedling fresh weight (Fig3C), relative to mock (mik2-1, 1 μM, replicate 2): 0.7937
- Seedling fresh weight (Fig3C), relative to mock (mik2-1, 1 μM, replicate 3): 1.093
- Seedling fresh weight (Fig3C), relative to mock (mik2-1, 1 μM, replicate 4): 1.0157
- Seedling fresh weight (Fig3C), relative to mock (mik2-1, 1 μM, replicate 5): 1.096
- Seedling fresh weight (Fig3C), relative to mock (mik2-1, 1 μM, replicate 6): 0.8812
- Seedling fresh weight (Fig3C), relative to mock (mik2-1, 1 μM, replicate 7): 0.972
- Seedling fresh weight (Fig3C), relative to mock (mik2-1, 1 μM, replicate 8): 0.898
- Seedling fresh weight (Fig3C), relative to mock (mik2-1, 1 μM, replicate 9): 1.0157
- Seedling fresh weight (Fig3C), relative to mock (mik2-1, 1 μM, replicate 10): 1.002
- Seedling fresh weight (Fig3C), relative to mock (mik2-1, 1 μM, replicate 11): 1.083
- Seedling fresh weight (Fig3C), relative to mock (mik2-1, 1 μM, replicate 12): 1.063
- Seedling fresh weight (Fig3C), relative to mock (mik2-1, 10 μM, replicate 1): 1.068
- Seedling fresh weight (Fig3C), relative to mock (mik2-1, 10 μM, replicate 2): 1.011
- Seedling fresh weight (Fig3C), relative to mock (mik2-1, 10 μM, replicate 3): 0.7743
- Seedling fresh weight (Fig3C), relative to mock (mik2-1, 10 μM, replicate 4): 0.9434
- Seedling fresh weight (Fig3C), relative to mock (mik2-1, 10 μM, replicate 5): 0.8859
- Seedling fresh weight (Fig3C), relative to mock (mik2-1, 10 μM, replicate 6): 0.8014
- Seedling fresh weight (Fig3C), relative to mock (mik2-1, 10 μM, replicate 7): 1.0279
- Seedling fresh weight (Fig3C), relative to mock (mik2-1, 10 μM, replicate 8): 1.092
- Seedling fresh weight (Fig3C), relative to mock (mik2-1, 10 μM, replicate 9): 1.001
- Seedling fresh weight (Fig3C), relative to mock (mik2-1, 10 μM, replicate 10): 0.9772
- Seedling fresh weight (Fig3C), relative to mock (mik2-1, 10 μM, replicate 11): 1.058
- Seedling fresh weight (Fig3C), relative to mock (mik2-1, 10 μM, replicate 12): 1.106
